According to US8063229B2, “Antifungal triazole derivatives, method for the preparation thereof and pharmaceutical composition containing same” (Daewoong Pharmaceutical Co., Ltd., priority 2006, dated 2011):
≈ marks a conversion by molar mass, not a printed value.

Columns and labels:
Candida glabrata = assay: In vitro assay for antifungal activity (MIC80); format: cell-based; settings: concentration at which 80% inhibition of fungus growth occurs, RPMI 1640, alamarBlue, 24 hours, duplicate; for MIC80: Nakaseomyces glabratus
Description: (§1) Each fungal strain to be tested was inoculated onto Sabouraud dextrose agar, YM agar, and potato dextrose agar and cultured at 35° C. for two to three days. Single colonies of such of the yeast fungi were collected from the culture and suspended in 5 ml of 0.85% sterile saline, in an appropriate amount so that the absorbance at 530 nm became 0.108. The suspensions was diluted serially by 1:50 (RPMI 1640 media:sterile saline) and then further diluted by 1:20 (RPMI 1640 media:sterile saline) to prepare liquid inocula having a cell count ranging from 1.0×10^3 to 5.0×10^3 CFU/ml.
(§2) Antifungal samples were prepared by serially diluting each of the compounds of the present invention in RPMI 1640 media to concentrations range from 0.0156 to 32 μg/ml. As an excipient, DMSO was added to the antifungal sample to a final concentration of 1% (VAT). 0.1 ml of each of the serially diluted test solution was added to each well of 96 well plate, followed by adding 0.1 ml of each of the fungal inocula thereto.
(§3) At a given concentration of the test compound, the fungus growth was observed, after 24 hours, with the naked eye for all yeast species except for Cryptococcus neoformans, and the filamentous fungus growth was observed, after 48 hours. Also, using the growth indicator alamarBlue, MIC80, the concentration of the test compound at which 80% inhibition of the fungus growth occurs was determined based on the value observed for the negative control.

Candida krusei = assay: In vitro assay for antifungal activity (MIC80); format: cell-based; settings: concentration at which 80% inhibition of fungus growth occurs, RPMI 1640, alamarBlue, 24 hours, duplicate; for MIC80: Pichia kudriavzevii
Description: as §1, §2, §3

Candida tropicallis = assay: In vitro assay for antifungal activity (MIC80); format: cell-based; settings: concentration at which 80% inhibition of fungus growth occurs, RPMI 1640, alamarBlue, 24 hours, duplicate; for MIC80: Candida
Description: as §1, §2, §3

Candida parapsilosis = assay: In vitro assay for antifungal activity (MIC80); format: cell-based; settings: concentration at which 80% inhibition of fungus growth occurs, RPMI 1640, alamarBlue, 24 hours, duplicate; for MIC80: Lodderomyces parapsilosis
Description: as §1, §2, §3

Cryptococcus neoformans = assay: In vitro assay for antifungal activity (MIC80); format: cell-based; settings: concentration at which 80% inhibition of fungus growth occurs, RPMI 1640, alamarBlue, duplicate; for MIC80: Cryptococcus neoformans
Description: as §1, §2, §3

Candida albicans [1] = assay: In vitro assay for antifungal activity (MIC80); format: cell-based; settings: concentration at which 80% inhibition of fungus growth occurs, RPMI 1640, alamarBlue, 24 hours, duplicate; for MIC80: Candida albicans
Description: as §1, §2, §3

Candida albicans [2] = assay: In vivo assay for antifungal activity (survival of infected mice); settings: male mice, Candida albicans i.v.; 10 mg/kg orally once a day for seven days from 2 hours after infection; survival 28 days after infection
Description: 0.1 mL of a suspension containing 5×10^7 CFU/ml of Candida albicans was administered to each of 10 male mice by intravenous injection. 10 mg/kg of each of the test compounds to orally administer to the inoculated mouse 2 hours after the fungal infection. The test compound was administered once a day for seven days. The number of mice which survived the fungal infection for 28 days after the fungal infection was determined as % survival for each test group, and the results are given in Table 7: […]

[3] = Assay for subacute toxicity in mice; format: in vivo
Description: Subacute cytotoxicity tests were conducted by administering Example compounds 41 and 45, each suspended in aqueous 0.5% methylcellulose to mice once a day for 2 weeks.

[4] = mice, suspended in aqueous 0.5% methylcellulose, once a day for 2 weeks

Structure (SMILES): C[C@@H](n1cc(N2CCN(c3ccc(Cl)cc3)C2=O)cn1)[C@](O)(Cn1cncn1)c1ccc(F)cc1F [Example 1, 1-(4-Chlorophenyl)-3-(1-((2R,3R)-3-(2,4-difluorophenyl)-3-hydroxy-4-(1H-1,2,4-triazol-1-yl)butan-2-yl)-1H-pyrazol-4-yl)imidazolidin-2-one]
- MIC80 (Candida glabrata): 8 mg/L (≈ 15.6 µM)
- MIC80 (Candida krusei): 2 mg/L (≈ 3.89 µM)
- MIC80 (Candida tropicallis): 1 mg/L (≈ 1.95 µM)
- MIC80 (Candida parapsilosis): 0.125 mg/L (≈ 0.243 µM)
- MIC80 (Cryptococcus neoformans): 0.25 mg/L (≈ 0.486 µM)
- MIC80 (Candida albicans [1]): ≤ 0.015 mg/L

Structure (SMILES): C[C@@H](n1cc(/C=C/c2ccc(F)cc2)cn1)[C@](O)(Cn1cncn1)c1ccc(F)cc1F [Example 40, (2R,3R,E)-2-(2,4-Difluorophenyl)-3-(4-(4-fluorostyryl)-1H-pyrazol-1-yl)-1-(1H-1,2,4-triazol-1-yl)butan-2-ol]
- MIC80 (Candida glabrata): 2 mg/L (≈ 4.55 µM)
- MIC80 (Candida krusei): 0.25 mg/L (≈ 0.569 µM)
- MIC80 (Candida tropicallis): ≤ 0.015 mg/L
- MIC80 (Candida parapsilosis): ≤ 0.015 mg/L
- MIC80 (Cryptococcus neoformans): 0.031 mg/L (≈ 0.0705 µM)
- MIC80 (Candida albicans [1]): ≤ 0.015 mg/L

Structure (SMILES): C[C@@H](n1cc(/C=C/c2ccc(Cl)cc2)cn1)[C@](O)(Cn1cncn1)c1ccc(F)cc1F [Example 41, (2R,3R,E)-3-(4-(4-Chlorostyryl)-1H-pyrazol-1-yl)-2-(2,4-difluorophenyl)-1-(1H-1,2,4-triazol-1-yl)butan-2-ol]
- % Survival (Candida albicans [2]): 100%
- MIC80 (Candida glabrata): 1 mg/L (≈ 2.19 µM)
- MIC80 (Candida krusei): 0.5 mg/L (≈ 1.1 µM)
- MIC80 (Candida tropicallis): 0.125 mg/L (≈ 0.274 µM)
- MIC80 (Candida parapsilosis): ≤ 0.015 mg/L
- MIC80 (Cryptococcus neoformans): ≤ 0.015 mg/L
- MIC80 (Candida albicans [1]): ≤ 0.015 mg/L
- changes in the living states, organs, liver enzyme and liver weight [3, 4]: no changes
- toxic syndromes [3, 4]: none of the mice were observed to suffer from toxic syndromes

Structure (SMILES): C[C@@H](n1cc(CCc2ccc(F)cc2)cn1)[C@](O)(Cn1cncn1)c1ccc(F)cc1F [Example 38, (2R,3R)-2-(2,4-Difluorophenyl)-3-(4-(4-fluorophenethyl)-1H-pyrazol-1-yl)-1-(1H-1,2,4-triazol-1-yl)butan-2-ol]
- MIC80 (Candida glabrata): 2 mg/L (≈ 4.53 µM)
- MIC80 (Candida krusei): 0.25 mg/L (≈ 0.566 µM)
- MIC80 (Candida tropicallis): ≤ 0.015 mg/L
- MIC80 (Candida parapsilosis): ≤ 0.015 mg/L
- MIC80 (Cryptococcus neoformans): 0.125 mg/L (≈ 0.283 µM)
- MIC80 (Candida albicans [1]): ≤ 0.015 mg/L

Structure (SMILES): C[C@@H](n1cc(-n2ccn(-c3ccc(Cl)cc3)c2=O)cn1)[C@](O)(Cn1cncn1)c1ccc(F)cc1F [Example 23, 3-(4-Chlorophenyl)-1-(1-((2R,3R)-3-(2,4-difluorophenyl)-3-hydroxy-4-(1H-1,2,4-triazol-1-yl)butan-2-yl)-1H-pyrazol-4-yl)-1H-imidazole-2(3H)-one]
- MIC80 (Candida glabrata): 4 mg/L (≈ 7.81 µM)
- MIC80 (Candida krusei): 0.5 mg/L (≈ 0.977 µM)
- MIC80 (Candida tropicallis): 0.125 mg/L (≈ 0.244 µM)
- MIC80 (Candida parapsilosis): ≤ 0.015 mg/L
- MIC80 (Cryptococcus neoformans): 0.125 mg/L (≈ 0.244 µM)
- MIC80 (Candida albicans [1]): ≤ 0.015 mg/L

Structure (SMILES): C[C@@H](n1cc(CCc2ccc(Cl)cc2)cn1)[C@](O)(Cn1cncn1)c1ccc(F)cc1F [Example 39, (2R,3R)-3-(4-(4-Chlorophenethyl)-1H-pyrazol-1-yl)-2-(2,4-difluorophenyl)-1-(1H-1,2,4-triazol-1-yl)butan-2-ol]
- MIC80 (Candida glabrata): 1 mg/L (≈ 2.18 µM)
- MIC80 (Candida krusei): 0.5 mg/L (≈ 1.09 µM)
- MIC80 (Candida tropicallis): 0.062 mg/L (≈ 0.135 µM)
- MIC80 (Candida parapsilosis): ≤ 0.015 mg/L
- MIC80 (Cryptococcus neoformans): ≤ 0.015 mg/L
- MIC80 (Candida albicans [1]): ≤ 0.015 mg/L

Structure (SMILES): C[C@@H](n1cc(C#Cc2ccc(F)cc2)cn1)[C@](O)(Cn1cncn1)c1ccc(F)cc1F [Example 45]
- % Survival (Candida albicans [2]): 100%
- MIC80 Candida glabrata (Candida glabrata): 2 mg/L (≈ 4.57 µM)
- MIC80 Candida krusei (Candida krusei): 0.5 mg/L (≈ 1.14 µM)
- MIC80 Candida tropicallis (Candida tropicallis): ≦0.015 μg/ml
- MIC80 Candida parapsilosis (Candida parapsilosis): ≦0.015 μg/ml
- MIC80 Cryptococcus neoformans (Cryptococcus neoformans): 0.062 mg/L (≈ 0.142 µM)
- MIC80 Candida albicans (Candida albicans [1]): ≦0.015 μg/ml
- toxic syndromes ([3]; mouse, in vivo): none of the mice were observed to suffer from toxic syndromes

Structure (SMILES): OC(Cn1cncn1)(Cn1cncn1)c1ccc(F)cc1F [Fluconazole, fluconazole, reference compound]
- % Survival (Candida albicans [2]): 50%
- MIC80 (Candida glabrata): > 32 mg/L
- MIC80 (Candida krusei): 4 mg/L (≈ 13.1 µM)
- MIC80 (Candida tropicallis): > 32 mg/L
- MIC80 (Candida parapsilosis): > 32 mg/L
- MIC80 (Cryptococcus neoformans): 32 mg/L (≈ 104 µM)
- MIC80 (Candida albicans [1]): 4 mg/L (≈ 13.1 µM)

Structure (SMILES): C[C@@H](n1cc(/C=C/c2cnccn2)cn1)[C@](O)(Cn1cncn1)c1ccc(F)cc1F [Example 53, (2R,3R,E)-2-(2,4-Difluorophenyl)-3-(4-(2-(pyrazin-2-yl)vinyl)-1H-pyrazol-1-yl)-1-(1H-1,2,4-triazol-1-yl)butan-2-ol]
- MIC80 (Candida krusei): 4 mg/L (≈ 9.45 µM)
- MIC80 (Candida parapsilosis): 0.125 mg/L (≈ 0.295 µM)
- MIC80 (Cryptococcus neoformans): 1 mg/L (≈ 2.36 µM)
- MIC80 (Candida albicans [1]): 0.125 mg/L (≈ 0.295 µM)
